Measurements: the CheMixHub viscosity set

Assay: xn = mol fraction of the nth substance listed

CCN(CC)CCO + CC(=O)N(C)C
viscosity [mPa·s], 101 kPa
Details | 298.15 K | 308.15 K | 318.15 K
x2 = 0.0505 | 2.874 | 2.164 | 1.669
x2 = 0.0999 | 2.683 | 1.999 | 1.517
x2 = 0.1499 | 2.512 | 1.849 | 1.374
x2 = 0.2004 | 2.356 | 1.715 | 1.254
x2 = 0.2997 | 2.089 | 1.502 | 1.08
x2 = 0.3997 | 1.871 | 1.314 | 0.956
x2 = 0.5008 | 1.677 | 1.207 | 0.861
x2 = 0.5998 | 1.51 | 1.103 | 0.792
x2 = 0.6995 | 1.357 | 1.015 | 0.747
x2 = 0.7989 | 1.2 | 0.932 | 0.721
x2 = 0.8997 | 1.046 | 0.854 | 0.7

CCN(CC)CCO + CC(=O)c1ccccc1
viscosity [mPa·s], 101.3 kPa
Details | x2 = 0.1124 | x2 = 0.2218 | x2 = 0.3282 | x2 = 0.4318 | x2 = 0.5327 | x2 = 0.631 | x2 = 0.7268 | x2 = 0.8201 | x2 = 0.9112
303.15 K | 3.131 | 2.954 | 2.778 | 2.601 | 2.424 | 2.247 | 2.07 | 1.894 | 1.717
313.15 K | 2.304 | 2.193 | 2.083 | 1.972 | 1.862 | 1.752 | 1.641 | 1.531 | 1.42
323.15 K | 1.458 | 1.446 | 1.434 | 1.419 | 1.401 | 1.381 | 1.36 | 1.335 | 1.311

CCCCC + CC(C)(C)O
viscosity [mPa·s], 101 kPa
Details | x1 = 0.1023 | x1 = 0.2048 | x1 = 0.3056 | x1 = 0.407 | x1 = 0.5068 | x1 = 0.606 | x1 = 0.7043 | x1 = 0.8042 | x1 = 0.902
293.15 K | 1.891 | 1.128 | 0.88 | 0.771 | 0.657 | 0.485 | 0.373 | 0.32 | 0.281
303.15 K | 1.992 | 1.162 | 1.011 | 1.064 | 0.954 | 0.769 | 0.616 | 0.49 | 0.36
313.15 K | 1.996 | 1.211 | 1.298 | 1.282 | 1.182 | 1.012 | 0.832 | 0.625 | 0.455

CCN(CC)S(C)(=O)=O + CC(C)(C)O
303.15 K, 101.33 kPa
Details | viscosity [mPa·s]
x1 = 0.0764 | 28570
x1 = 0.1463 | 26300
x1 = 0.2364 | 24820
x1 = 0.3171 | 24370
x1 = 0.3944 | 24530
x1 = 0.4712 | 25010
x1 = 0.5369 | 25790
x1 = 0.6062 | 26640
x1 = 0.6888 | 27960
x1 = 0.7621 | 30100
x1 = 0.8534 | 33040
x1 = 0.9381 | 36570

CS(C)=O + CC(C)=O
302.4 K, 101 kPa
Details | viscosity [mPa·s]
x1 = 0.0644 | 0.7031
x1 = 0.1924 | 0.809
x1 = 0.3826 | 1.14
x1 = 0.508 | 1.554
x1 = 0.6325 | 2.09
x1 = 0.8173 | 2.443

CC(=O)CC(C)(C)O + CC(C)O
viscosity [mPa·s], 100 kPa
Details | x2 = 0.1 | x2 = 0.2 | x2 = 0.3 | x2 = 0.4 | x2 = 0.5 | x2 = 0.6 | x2 = 0.7 | x2 = 0.8 | x2 = 0.9
303.15 K | 2.39 | 2.29 | 2.19 | 2.09 | 2 | 1.91 | 1.84 | 1.78 | 1.75
323.15 K | 1.5 | 1.43 | 1.36 | 1.29 | 1.23 | 1.18 | 1.12 | 1.08 | 1.04

CCCCC + CC(C)O
298.15 K, 101 kPa
Details | viscosity [mPa·s]
x2 = 0.1128 | 0.262
x2 = 0.2204 | 0.281
x2 = 0.3273 | 0.323
x2 = 0.4232 | 0.385
x2 = 0.516 | 0.466
x2 = 0.6004 | 0.577
x2 = 0.6858 | 0.71
x2 = 0.7699 | 0.966
x2 = 0.8524 | 1.272
x2 = 0.9438 | 1.702

CCCCCCCCCC + CC(C)O
viscosity [mPa·s]
Details | 293.15 K | 298.15 K | 303.15 K | 308.15 K
101 kPa, x2 = 0.0571 | – | 0.839 | – | 0.757
101 kPa, x2 = 0.1237 | – | 0.837 | – | 0.74
101 kPa, x2 = 0.1714 | – | 0.838 | – | 0.726
101 kPa, x2 = 0.2709 | – | 0.851 | – | 0.735
101 kPa, x2 = 0.3525 | – | 0.867 | – | 0.746
101 kPa, x2 = 0.4184 | – | 0.888 | – | 0.762
101 kPa, x2 = 0.5253 | – | 0.945 | – | 0.8
101 kPa, x2 = 0.5786 | – | 0.986 | – | 0.824
101 kPa, x2 = 0.6537 | – | 1.059 | – | 0.882
101 kPa, x2 = 0.6971 | – | 1.113 | – | 0.909
101 kPa, x2 = 0.7895 | – | 1.261 | – | 1.013
101 kPa, x2 = 0.8717 | – | 1.457 | – | 1.152
101 kPa, x2 = 0.9099 | – | 1.583 | – | 1.246
101 kPa, x2 = 0.9453 | – | 1.727 | – | 1.35
101.32 kPa, x2 = 0.0412 | 0.896 | 0.831 | 0.773 | –
101.32 kPa, x2 = 0.0998 | 0.893 | 0.827 | 0.768 | –
101.32 kPa, x2 = 0.161 | 0.904 | 0.847 | 0.785 | –
101.32 kPa, x2 = 0.2938 | 0.916 | 0.845 | 0.777 | –
101.32 kPa, x2 = 0.3954 | 0.957 | 0.878 | 0.809 | –
101.32 kPa, x2 = 0.4988 | 1.006 | 0.916 | 0.836 | –
101.32 kPa, x2 = 0.5943 | 1.095 | 0.986 | 0.893 | –
101.32 kPa, x2 = 0.7019 | 1.241 | 1.11 | 0.994 | –
101.32 kPa, x2 = 0.8012 | 1.436 | 1.273 | 1.127 | –
101.32 kPa, x2 = 0.9017 | 1.759 | 1.538 | 1.348 | –
101.32 kPa, x2 = 0.951 | 2.014 | 1.742 | 1.515 | –

CCN(CC)S(C)(=O)=O + CC(C)O
303.15 K, 101.33 kPa
Details | viscosity [mPa·s]
x1 = 0.068 | 15930
x1 = 0.1441 | 15440
x1 = 0.2157 | 15650
x1 = 0.2582 | 15980
x1 = 0.3391 | 16860
x1 = 0.4088 | 17920
x1 = 0.4524 | 18630
x1 = 0.5136 | 19840
x1 = 0.5952 | 21830
x1 = 0.6857 | 24330
x1 = 0.7556 | 26840
x1 = 0.8417 | 30570
x1 = 0.9259 | 35180

CS(C)=O + CC(C)O
viscosity [mPa·s]
Details | 298.15 K | 303.15 K | 308.15 K | 318.15 K
101 kPa, x1 = 0.0385 | 1.91 | 1.59 | 1.46 | –
101 kPa, x1 = 0.0787 | 1.77 | 1.49 | 1.36 | –
101 kPa, x1 = 0.1001 | – | 1.525 | – | –
101 kPa, x1 = 0.2059 | 1.51 | – | – | –
101 kPa, x1 = 0.2479 | 1.45 | 1.32 | 1.2 | –
101 kPa, x1 = 0.339 | 1.42 | 1.29 | – | –
101 kPa, x1 = 0.4639 | 1.45 | 1.32 | – | –
101 kPa, x1 = 0.5357 | 1.48 | 1.35 | 1.24 | –
101 kPa, x1 = 0.6422 | 1.55 | 1.42 | 1.32 | –
101 kPa, x1 = 0.7547 | 1.66 | 1.51 | 1.39 | –
101 kPa, x1 = 0.8134 | 1.72 | 1.57 | 1.45 | –
101 kPa, x1 = 0.8738 | 1.8 | 1.64 | 1.5 | –
101 kPa, x1 = 0.9005 | – | – | – | 1.285
101 kPa, x1 = 0.936 | 1.88 | 1.72 | – | –
101.3 kPa, x1 = 0.0788 | 1.742 | 1.576 | – | –
101.3 kPa, x1 = 0.1608 | 1.589 | 1.447 | – | –
101.3 kPa, x1 = 0.2475 | 1.473 | 1.358 | – | –
101.3 kPa, x1 = 0.3389 | 1.475 | 1.319 | – | –
101.3 kPa, x1 = 0.4347 | 1.451 | – | – | –
101.3 kPa, x1 = 0.5347 | 1.501 | 1.346 | – | –
101.3 kPa, x1 = 0.6423 | 1.597 | 1.406 | – | –
101.3 kPa, x1 = 0.7546 | 1.679 | 1.505 | – | –
101.3 kPa, x1 = 0.8737 | 1.828 | 1.622 | – | –

CC1(C)OCC(CO)O1 (centres undefined) + CC(O)CO
viscosity [mPa·s], 101 kPa
Details | x1 = 0.1024 | x1 = 0.2011 | x1 = 0.2987 | x1 = 0.4005 | x1 = 0.5 | x1 = 0.6041 | x1 = 0.6998 | x1 = 0.8002 | x1 = 0.9017
298.15 K | 40.23 | 35.6 | 31.55 | 27.24 | 22.86 | 19.38 | 16.97 | 14.5 | 12.03
308.15 K | 23.19 | 20.46 | 18.03 | 15.53 | 13.03 | 11.25 | 10.26 | 9.248 | 7.738
318.15 K | 14.4 | 12.56 | 11.33 | 9.726 | 8.135 | 7.174 | 6.614 | 6.244 | 5.465

CCOC(=O)C(C)O (centres undefined) + CCC(C)=O
101 kPa
Details | viscosity [mPa·s]
298.15 K, x1 = 0.6999 | 1.375
308.15 K, x1 = 0.8 | 1.345
308.15 K, x1 = 0.9001 | 1.595
318.15 K, x1 = 0.1999 | 0.4415

CC/C=C\CCO + CCCCCC
viscosity [mPa·s], 100 kPa
Details | 293.15 K | 298.15 K | 303.15 K | 308.15 K | 313.15 K | 318.15 K
x1 = 0.025 | 0.3277 | 0.3128 | 0.3002 | 0.2869 | 0.2756 | 0.2648
x1 = 0.0501 | 0.3397 | 0.3264 | 0.3121 | 0.2966 | 0.2844 | 0.2727
x1 = 0.1 | 0.3655 | 0.3504 | 0.3343 | 0.3164 | 0.3024 | 0.2892
x1 = 0.2001 | 0.4403 | 0.4139 | 0.392 | 0.369 | 0.3498 | 0.3318
x1 = 0.2999 | 0.5582 | 0.5227 | 0.4881 | 0.4558 | 0.4197 | 0.3967
x1 = 0.4003 | 0.6649 | 0.6196 | 0.5788 | 0.5377 | 0.497 | 0.467
x1 = 0.4994 | 0.8527 | 0.7851 | 0.7244 | 0.6686 | 0.6173 | 0.5715
x1 = 0.5998 | 1.103 | 1.005 | 0.9179 | 0.8404 | 0.7733 | 0.7131
x1 = 0.6998 | 1.451 | 1.306 | 1.18 | 1.07 | 0.978 | 0.889
x1 = 0.7995 | 1.878 | 1.701 | 1.522 | 1.366 | 1.238 | 1.126
x1 = 0.8996 | 2.51 | 2.234 | 1.981 | 1.763 | 1.58 | 1.429
